Experimental data from patent US20230295197A1, “STAT5 and STAT6 Degraders and Uses Thereof” (REGENTS OF THE UNIVERSITY OF MICHICAN, priority 2022, published 2023).
Read-outs that look alike come from different tables or passages of the source.

Biological target: T1, STAT6 (Homo sapiens, UniProt P42226)
T1 construct: endogenous in cells; host or cells: MOLM-16, KU-812, SKNO1, MB231, L1236
T1 sequence (P42226 1-847): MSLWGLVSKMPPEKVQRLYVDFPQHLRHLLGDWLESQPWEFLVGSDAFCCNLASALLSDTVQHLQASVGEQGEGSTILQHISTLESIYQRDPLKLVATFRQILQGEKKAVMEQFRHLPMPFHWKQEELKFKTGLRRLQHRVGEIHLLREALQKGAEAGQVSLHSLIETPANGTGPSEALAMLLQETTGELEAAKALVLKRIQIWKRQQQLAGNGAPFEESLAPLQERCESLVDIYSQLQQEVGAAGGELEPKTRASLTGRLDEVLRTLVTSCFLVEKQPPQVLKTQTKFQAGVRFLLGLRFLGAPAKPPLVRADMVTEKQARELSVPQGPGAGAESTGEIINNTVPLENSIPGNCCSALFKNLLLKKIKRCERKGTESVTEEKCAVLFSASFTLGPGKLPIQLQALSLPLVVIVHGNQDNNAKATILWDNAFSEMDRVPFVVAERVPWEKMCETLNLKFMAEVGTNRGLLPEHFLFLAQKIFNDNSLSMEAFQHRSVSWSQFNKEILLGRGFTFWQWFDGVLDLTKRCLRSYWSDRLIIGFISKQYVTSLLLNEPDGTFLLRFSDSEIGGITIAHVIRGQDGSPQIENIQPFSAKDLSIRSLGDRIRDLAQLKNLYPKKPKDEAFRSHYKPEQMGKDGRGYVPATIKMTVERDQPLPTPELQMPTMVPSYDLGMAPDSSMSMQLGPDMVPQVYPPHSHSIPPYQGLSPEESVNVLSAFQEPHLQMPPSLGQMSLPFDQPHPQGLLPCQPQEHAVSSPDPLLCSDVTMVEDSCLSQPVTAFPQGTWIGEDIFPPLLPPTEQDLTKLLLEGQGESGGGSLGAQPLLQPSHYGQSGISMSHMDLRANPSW
Assay: Immunoblotting (Western blot) analysis of STAT6 degradation efficiency of degraders in treated cells
Assay type: cell-based
Outline: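 Read-out: fluorescent IRDye 680RD/800CW secondaries imaged on an infrared scanner, with band intensities quantified by densitometry and GAPDH serving as loading control. Samples were RIPA lysates, BCA-normalised, from ~1 million treated cells.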

[1] = MOLM-16 cells, class symbols, read-out: DC50 S6 MOLM-16
[2] = L1236 cells, read-out: DC50 S6 L1236

| Compound | DC50 [1] | DC50 [2] | DC50 (MOLM-16 cells, numeric bound, read-out: DC50 S6 MOLM-16) |
| --- | --- | --- | --- |
| Cc1ncsc1-c1ccc([C@H](CC(=O)NCCCCCCCCCC(=O)N[C@H]2C[C@@H](C(=O)N3CCO[C@H](c4ccccc4)C3)N(C(=O)[C@@H](NC(=O)c3cc4cc(C(F)(F)P(=O)(O)O)ccc4s3)C(C)(C)C)C2)NC(=O)[C@@H]2C[C@@H](O)CN2C(=O)[C@@H](NC(=O)C2(F)CC2)C(C)(C)C)cc1 [Compound 572, (difluoro(2-(((S)-1-((2S,4S)-4-(10-((S)-3-((2S,4R)-1-((S)-2-(1-fluorocyclopropane-1-carboxamido)-3,3-dimethylbutanoyl)-4-hydroxypyrrolidine-2-carboxamido)-3-(4-(4-methylthiazol-5-yl)phenyl)propanamido)decanamido)-2-((R)-2-phenylmorpholine-4-carbonyl)pyrrolidin-1-yl)-3,3-dimethyl-1-oxobutan-2-yl)carbamoyl)benzo[b]thiophen-5-yl)methyl)phosphonic acid] | > 10 µM |  |  |
| Cc1ncsc1-c1ccc([C@H](C)NC(=O)[C@@H]2C[C@@H](O)CN2C(=O)[C@@H](NC(=O)CCCCCCNC(=O)COc2ccc3c(c2)CN(C(=O)[C@@H](NC(=O)c2cc4cc(C(F)(F)P(=O)(O)O)ccc4s2)C(C)(C)C)[C@H](C(=O)N2CCO[C@H](c4ccccc4)C2)C3)C(C)(C)C)cc1 [Compound 466, (difluoro(2-(((S)-1-((S)-7-(2-((7-(((S)-1-((2S,4R)-4-hydroxy-2-(((S)-1-(4-(4-methylthiazol-5-yl)phenyl)ethyl)carbamoyl)pyrrolidin-1-yl)-3,3-dimethyl-1-oxobutan-2-yl)amino)-7-oxoheptyl)amino)-2-oxoethoxy)-3-((R)-2-phenylmorpholine-4-carbonyl)-3,4-dihydroisoquinolin-2(1H)-yl)-3,3-dimethyl-1-oxobutan-2-yl)carbamoyl)benzo[b]thiophen-5-yl)methyl)phosphonic acid] | > 10 µM | > 10 µM |  |
| Cc1ncsc1-c1ccc([C@H](C)NC(=O)[C@@H]2C[C@@H](O)CN2C(=O)[C@@H](NC(=O)CCCNC(=O)CC(=O)N2CCN(C(=O)[C@@H](NC(=O)c3cc4cc(C(F)(F)P(=O)(O)O)ccc4s3)C(C)(C)C)[C@H](C(=O)N3CCC[C@H](c4ccccc4)C3)C2)C(C)(C)C)cc1 [Compound 454, (difluoro(2-(((S)-1-((S)-4-(3-((4-(((S)-1-((2S,4R)-4-hydroxy-2-(((S)-1-(4-(4-methylthiazol-5-yl)phenyl)ethyl)carbamoyl)pyrrolidin-1-yl)-3,3-dimethyl-1-oxobutan-2-yl)amino)-4-oxobutyl)amino)-3-oxopropanoyl)-2-((R)-3-phenylpiperidine-1-carbonyl)piperazin-1-yl)-3,3-dimethyl-1-oxobutan-2-yl)carbamoyl)benzo[b]thiophen-5-yl)methyl)phosphonic acid] | > 10 µM | > 10 µM |  |
| CC(C)(C)[C@H](NC(=O)c1cc2cc(C(F)(F)P(=O)(O)O)ccc2s1)C(=O)N1Cc2cc(OCC(=O)NCCCC#Cc3ccc4c(c3)C(=O)N(C3CCC(=O)NC3=O)C4=O)ccc2C[C@H]1C(=O)N1CCC[C@H](c2ccccc2)C1 (stereo partly drawn) [Compound 554, ((2-(((2S)-1-((3S)-7-(2-((5-(2-(2,6-dioxopiperidin-3-yl)-1,3-dioxoisoindolin-5-yl)pent-4-yn-1-yl)amino)-2-oxoethoxy)-3-((R)-3-phenylpiperidine-1-carbonyl)-3,4-dihydroisoquinolin-2(1H)-yl)-3,3-dimethyl-1-oxobutan-2-yl)carbamoyl)benzo[b]thiophen-5-yl)difluoromethyl)phosphonic acid] | > 10 µM |  |  |
| Cc1ncsc1-c1ccc([C@H](C)NC(=O)[C@@H]2C[C@@H](O)CN2C(=O)[C@@H](NC(=O)CCCCCCCCCNC(=O)CC(=O)N2CCN(C(=O)[C@@H](NC(=O)c3cc4cc(C(F)(F)P(=O)(O)O)ccc4s3)C(C)(C)C)[C@H](C(=O)N3CCC[C@H](c4ccccc4)C3)C2)C(C)(C)C)cc1 [Compound 460, (difluoro(2-(((S)-1-((S)-4-(3-((10-(((S)-1-((2S,4R)-4-hydroxy-2-(((S)-1-(4-(4-methylthiazol-5-yl)phenyl)ethyl)carbamoyl)pyrrolidin-1-yl)-3,3-dimethyl-1-oxobutan-2-yl)amino)-10-oxodecyl)amino)-3-oxopropanoyl)-2-((R)-3-phenylpiperidine-1-carbonyl)piperazin-1-yl)-3,3-dimethyl-1-oxobutan-2-yl)carbamoyl)benzo[b]thiophen-5-yl)methyl)phosphonic acid] | > 10 µM | > 10 µM |  |
| CC(C)(C)[C@H](NC(=O)c1cc2cc(C(F)(F)P(=O)(O)O)ccc2s1)C(=O)N1C[C@@H](OCC(=O)NCCCCCCCCCC#Cc2cccc3c2C(=O)N(C2CCC(=O)NC2=O)C3=O)C[C@H]1C(=O)N1CCC[C@H](c2ccccc2)C1 (stereo partly drawn) [Compound 505, ((2-(((2S)-1-((2S,4S)-4-(2-((11-(2-(2,6-dioxopiperidin-3-yl)-1,3-dioxoisoindolin-4-yl)undec-10-yn-1-yl)amino)-2-oxoethoxy)-2-((R)-3-phenylpiperidine-1-carbonyl)pyrrolidin-1-yl)-3,3-dimethyl-1-oxobutan-2-yl)carbamoyl)benzo[b]thiophen-5-yl)difluoromethyl)phosphonic acid] | > 10 µM |  |  |
| CC(C)(C)[C@H](NC(=O)c1cc2cc(C(F)(F)P(=O)(O)O)ccc2s1)C(=O)N1CCN(C(=O)CC(=O)NCCCC#Cc2cccc3c2C(=O)N(C2CCC(=O)NC2=O)C3=O)C[C@H]1C(=O)N1CCO[C@H](c2ccccc2)C1 (stereo partly drawn) [Compound 511, ((2-(((2S)-1-((2S)-4-(3-((5-(2-(2,6-dioxopiperidin-3-yl)-1,3-dioxoisoindolin-4-yl)pent-4-yn-1-yl)amino)-3-oxopropanoyl)-2-((R)-2-phenylmorpholine-4-carbonyl)piperazin-1-yl)-3,3-dimethyl-1-oxobutan-2-yl)carbamoyl)benzo[b]thiophen-5-yl)difluoromethyl)phosphonic acid] | 1 to 10 µM |  |  |
| CC(C)(C)[C@H](NC(=O)c1cc2cc(C(F)(F)P(=O)(O)O)ccc2s1)C(=O)N1C[C@@H](OCC(=O)NCC#Cc2cccc3c2C(=O)N(C2CCC(=O)NC2=O)C3=O)C[C@H]1C(=O)N1CCO[C@H](c2ccccc2)C1 (stereo partly drawn) [Compound 479, ((2-(((2S)-1-((2S,4S)-4-(2-((3-(2-(2,6-dioxopiperidin-3-yl)-1,3-dioxoisoindolin-4-yl)prop-2-yn-1-yl)amino)-2-oxoethoxy)-2-((R)-2-phenylmorpholine-4-carbonyl)pyrrolidin-1-yl)-3,3-dimethyl-1-oxobutan-2-yl)carbamoyl)benzo[b]thiophen-5-yl)difluoromethyl)phosphonic acid] | > 10 µM |  |  |
| CC(C)(C)[C@H](NC(=O)c1cc2cc(C(F)(F)P(=O)(O)O)ccc2s1)C(=O)N1C[C@H](OCCCCCC#Cc2cccc3c2CN(C2CCC(=O)NC2=O)C3=O)C[C@H]1C(=O)N1CCO[C@H](c2ccccc2)C1 (stereo partly drawn) [Compound 600, ((2-(((2S)-1-((2S,4R)-4-((7-(2-(2,6-dioxopiperidin-3-yl)-1-oxoisoindolin-4-yl)hept-6-yn-1-yl)oxy)-2-((R)-2-phenylmorpholine-4-carbonyl)pyrrolidin-1-yl)-3,3-dimethyl-1-oxobutan-2-yl)carbamoyl)benzo[b]thiophen-5-yl)difluoromethyl)phosphonic acid] |  |  | > 0.3 µM |
